Reference: US20130315843A1, “COMPOSITION FOR REDUCTION OF TRPA1 AND TRPV1 SENSATIONS” (priority 2012, published 2013)
Entries after “also recorded” stand apart in the source; their conditions may differ. Read-outs that look alike come from different tables or passages of the source.

Columns and labels:
human TRPA1 [1] = target: T1, human TRPA1 (Homo sapiens, UniProt O75762); assay: FLIPR Ca2+ assay, reduction of hydrogen peroxide activation of TRPA1; format: cell-based; design: expressed in transfected cells; settings: for inhibition at 400 µM / inhibition at 100 µM: read-out: % Reduction of Hydrogen Peroxide TRPA1 Activation
Method: After centrifugation, a pellet of cells was formed in the bottom of the tube separating them from the supernatant solution.
The pelleted cells were re-suspended in 10 ml assay buffer and 90 μl aliquots (˜50,000 cells) per well delivered to a 96-well assay plate containing 10 μl of test compounds ([…]) or buffer control and incubated at room temperature for 30 minutes.

human TRPA1 [2] = target: T1, human TRPA1; assay: FLIPR Ca2+ assay, block of AITC activation of TRPA1; format: cell-based; design: expressed in transfected cells
Method: Intracellular Ca^++ levels were measured using cell based assays as described for EXAMPLES 1, 2, and 3.

human TRPA1 [3] = target: T1, human TRPA1; assay: FLIPR Ca2+ assay, reduction of L-Menthol activation of TRPA1
Method: In order to determine whether TRPA1 is activated, the intracellular calcium ion (Ca^2+) level from transfected cells with the TRPA1 receptor gene was measured. HEK-2 cells stably transfected with human TRPA1 were grown in 15 ml growth medium [high glucose DMEM (Dulbecco's Modification of Eagle's Medium) supplemented with 10% FBS (fetal bovine serum), 100 μg/ml Penicillin/streptomycin, 100 μg/ml G418] in a 75 Cm^2 flask for 3 days at 37° C. in a mammalian cell culture incubator set at 5% CO2. Cells were detached with addition of 10 ml of PBS (phosphate buffered saline) by hand shaking gently and transferred to a 50 ml tube and centrifuged at 850 rpm for 3 minutes to remove PBS. After centrifugation, a pellet of cells was formed in the bottom of the tube separating them from the supernatant solution. […] Fluo-4 is a fluorescent dye used for quantifying cellular Ca^2+ concentrations in the 100 nM to 1 μM range.
The pelleted cells were re-suspended in 10 ml assay buffer and 90 μl aliquots (˜50,000 cells) per well delivered to a 96-well assay plate containing 10 μl of test compounds (1 mM in assay buffer, final concentration 100 μM) or buffer control and incubated at room temperature for 30 minutes. After 30 minutes, the plate was placed into a fluorometric imaging plate reader (FLIPR384 from Molecular Devices) and basal fluorescence recorded (excitation wave length 488 nm and emission wave length 510 nm). Then 20 μl of the molecule being tested as a TRPA1 antagonist was added and fluorescence recorded. For determining the direct effect of test compounds on TRPA1, fluorescence was measured immediately after addition of each compound.
To determine if a compound was an antagonist or a desensitizer the direct effect of a test compound was determined. For determining the direct effect of test compounds on TRPA1 receptor activation, 100 μl aliquots (˜50,000 cells) of cells prepared as described above were delivered to a 96-well assay plate and basal fluorescence recorded as noted above. Then 20 μl of the compound being tested as a TRPA1 activator was added and fluorescence recorded. If any increase in fluorescence over background was noted, then the compound was considered an agonist.

human TRPV1 [4] = target: T2, human TRPV1 (Homo sapiens, UniProt Q8NER1); assay: FLIPR Ca2+ assay, reduction of L-Menthol activation of TRPV1; settings: for Average Ca2+ Counts / % Reduction of L-Menthol TRPV1 Activation: antagonist 100 μM against 1 mM L-Menthol; for inhibition at 100 µM: read-out: % Reduction of L-Menthol TRPV1 Activation
Method: To determine whether TRPV1 was activated, the intracellular calcium ion (Ca^+2) levels from cells transfected with the TRPV1 receptor gene was measured. HEK-239 cells stably transfected with human TRPV1 were grown in 15 ml growth medium [high glucose DMEM (Dulbecco's Modification of Eagle's Medium) supplemented with 10% FBS (fetal bovine serum), 100 g/ml Penicillin/streptomycin, 100 g/ml G418] in a 75 Cm2 flask for 3 days at 33° C. in a mammalian cell culture incubator set at 5% CO2. Cells were detached with addition of 10 ml of PBS (phosphate buffered saline) by hand shaking gently. Cells were transferred to a 50 ml tube and centrifuged at 850 rpm for 3 minutes to remove PBS. After centrifugation, a pellet of cells formed in the bottom of the tube separating them from the supernatant solution. The supernatant was discarded and the cell pellet suspended in 1 ml of fresh growth medium to which 5 μl (12.5 g) of Fluo-4 AM (Molecular Probes, Inc., Eugene, Oreg.) calcium indicator was added and incubated for 30 minutes with gentle shaking.
The pelleted cells were re-suspended in 10 ml assay buffer and 90 μl aliquots (˜50,000 cells) per well delivered to a 96-well assay plate containing 10 μl of test compounds (1 mM in assay buffer, final concentration 100 μM) or buffer control and incubated at room temperature for 30 minutes. After 30 minutes, the plate was placed into a fluorometric imaging plate reader (FLIPR384 from Molecular Devices) and basal fluorescence recorded (excitation wave length 488 nm and emission wave length 510 nm). Then 20 μl of the compound being tested as a TRPV1 receptor activator was added and fluorescence recorded. […] It may be no difference (no effect), or negative (means antagonist or desensitizer) or positive (enhancer, also known as positive allosteric modulator). […] To determine if a compound was an antagonist or a desensitizer, the direct effect of a test compound was determined. For determining the direct effect of test compounds on TRPV1, 100 μl aliquots (˜50,000 cells) of cells prepared as described above were delivered to a 96-well assay plate and basal fluorescence recorded as noted above. Then 20 μl of the compound being tested as a TRPV1 receptor activator was added and fluorescence recorded. If any increase in fluorescence over background was noted, then the compound was considered an agonist. The agonist activity was expressed relative to that observed with a benchmark agonist such as 350 nM Capsaicin for TRPV1.
100 μM of antagonist was tested against 1 mM of L-Menthol to determine the level of reduced TRPV1 receptor activation by L-Menthol. Each antagonist compound was run with 1 mM of L-Menthol as a control and the antagonist activity of each compound was determined by comparing the Ca^2+ levels of the control with the antagonist compound being tested.

human TRPV1 [5] = target: T2, human TRPV1; assay: FLIPR Ca2+ assay, reduction of hydrogen peroxide activation of TRPV1; format: cell-based; design: expressed in transfected cells; settings: antagonist 100 μM against 500 μM hydrogen peroxide
Method: Cells were detached with addition of 10 ml of PBS (phosphate buffered saline) by hand shaking gently. Cells were transferred to a 50 ml tube and centrifuged at 850 rpm for 3 minutes to remove PBS.
The pelleted cells were re-suspended in 10 ml assay buffer and 90 μl aliquots (˜50,000 cells) per well delivered to a 96-well assay plate containing 10 μl of test compounds (1 mM in assay buffer, […]) or buffer control and incubated at room temperature for 30 minutes.

[6] = 400 μM antagonist vs 500 μM hydrogen peroxide
[7] = antagonist 400 μM against 200 μM hydrogen peroxide
[8] = 100 μM antagonist vs 500 μM hydrogen peroxide
[9] = compound 100 μM against 200 μM hydrogen peroxide, Sets 1-4
[10] = 100 μM antagonist vs 1 mM L-Menthol

T1 sequence (O75762 whole entry): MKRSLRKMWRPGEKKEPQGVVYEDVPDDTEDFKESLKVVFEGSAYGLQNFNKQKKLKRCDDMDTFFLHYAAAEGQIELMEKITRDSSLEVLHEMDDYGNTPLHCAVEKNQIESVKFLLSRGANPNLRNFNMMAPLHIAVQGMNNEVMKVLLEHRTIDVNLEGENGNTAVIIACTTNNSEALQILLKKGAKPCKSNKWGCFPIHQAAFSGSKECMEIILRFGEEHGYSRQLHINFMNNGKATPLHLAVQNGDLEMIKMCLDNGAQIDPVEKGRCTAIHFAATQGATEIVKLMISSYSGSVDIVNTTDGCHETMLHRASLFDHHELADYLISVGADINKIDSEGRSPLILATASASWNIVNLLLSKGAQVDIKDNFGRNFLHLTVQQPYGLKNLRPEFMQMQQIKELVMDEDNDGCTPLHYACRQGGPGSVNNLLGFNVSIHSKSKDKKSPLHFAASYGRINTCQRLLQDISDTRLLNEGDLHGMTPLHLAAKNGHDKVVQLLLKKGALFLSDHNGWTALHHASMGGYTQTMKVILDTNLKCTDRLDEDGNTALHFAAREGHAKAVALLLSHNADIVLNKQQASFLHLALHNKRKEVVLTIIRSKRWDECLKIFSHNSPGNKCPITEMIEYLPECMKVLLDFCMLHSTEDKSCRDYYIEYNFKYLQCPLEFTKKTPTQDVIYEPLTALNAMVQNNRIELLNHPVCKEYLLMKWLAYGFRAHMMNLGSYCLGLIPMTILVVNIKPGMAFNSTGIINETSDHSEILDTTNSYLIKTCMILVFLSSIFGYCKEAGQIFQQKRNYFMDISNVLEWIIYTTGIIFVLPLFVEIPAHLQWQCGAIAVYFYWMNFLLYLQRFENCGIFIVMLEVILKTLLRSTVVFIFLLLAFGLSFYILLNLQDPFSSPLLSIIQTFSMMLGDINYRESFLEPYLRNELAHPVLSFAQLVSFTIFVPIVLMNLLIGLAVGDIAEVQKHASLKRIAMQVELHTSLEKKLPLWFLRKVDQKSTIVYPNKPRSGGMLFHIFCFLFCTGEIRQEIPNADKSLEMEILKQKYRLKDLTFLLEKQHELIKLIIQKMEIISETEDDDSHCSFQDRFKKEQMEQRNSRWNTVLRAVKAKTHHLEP
T2 sequence (Q8NER1 whole entry): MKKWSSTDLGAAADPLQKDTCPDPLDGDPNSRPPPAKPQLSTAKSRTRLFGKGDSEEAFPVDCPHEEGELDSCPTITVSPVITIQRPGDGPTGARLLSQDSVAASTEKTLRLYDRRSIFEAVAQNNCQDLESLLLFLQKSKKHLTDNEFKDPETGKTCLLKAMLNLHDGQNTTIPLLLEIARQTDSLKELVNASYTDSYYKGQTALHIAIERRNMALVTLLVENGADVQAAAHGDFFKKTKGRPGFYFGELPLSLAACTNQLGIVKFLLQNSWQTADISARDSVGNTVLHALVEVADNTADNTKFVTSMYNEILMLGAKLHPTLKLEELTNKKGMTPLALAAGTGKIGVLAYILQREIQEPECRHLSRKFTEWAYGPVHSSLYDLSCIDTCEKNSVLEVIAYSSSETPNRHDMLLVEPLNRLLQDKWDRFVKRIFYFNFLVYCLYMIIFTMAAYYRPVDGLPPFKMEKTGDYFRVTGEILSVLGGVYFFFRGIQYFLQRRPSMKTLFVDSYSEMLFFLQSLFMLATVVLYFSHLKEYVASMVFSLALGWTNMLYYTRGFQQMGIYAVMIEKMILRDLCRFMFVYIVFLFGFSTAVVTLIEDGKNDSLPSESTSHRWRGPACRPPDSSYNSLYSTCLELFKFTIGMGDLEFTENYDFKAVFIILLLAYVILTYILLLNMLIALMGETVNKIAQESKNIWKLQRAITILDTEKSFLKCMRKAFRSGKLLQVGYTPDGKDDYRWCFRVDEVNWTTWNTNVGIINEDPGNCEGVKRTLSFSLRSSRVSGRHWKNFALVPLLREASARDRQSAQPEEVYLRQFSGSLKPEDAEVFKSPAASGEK

Row | Compound | Block of hydrogen peroxide activation of TRPA1 (human TRPA1 [1]; [8]) | Average Ca++ Counts (human TRPA1 [1]; [9]) | inhibition at 100 µM (human TRPA1 [1]; [9]) | Block of L-Menthol activation of TRPA1 (human TRPA1 [3]; [10]) | Average Ca2+ Counts (human TRPV1 [4]) | inhibition at 100 µM (human TRPV1 [4]) | Block of AITC activation of TRPA1 (human TRPA1 [2]; 100 μM antagonist) | further results
1 | C=CCc1cc(OC)c(O)c(OC)c1 [4-Allyl-2,6-dimethoxyphenol] | – | – | – | – | – | – | – | Block of hydrogen peroxide activation of TRPA1 (human TRPA1 [1]; [6]): Block both H2O2 and AITC on TRPA1; inhibition at 400 µM (human TRPA1 [1]; [7]): 54%; Block of AITC activation of TRPA1 (human TRPA1 [2]; 400 μM antagonist): Block both H2O2 and AITC on TRPA1
2 | CC(C)C=C(C=O)c1ccccc1 (single isomer, unassigned) [4-Methyl-2-phenyl-2 Pentenal (mixture of cis and trans isomers)] | – | – | – | – | – | – | – | Block of hydrogen peroxide activation of TRPA1 (human TRPA1 [1]): Block both H2O2 and AITC on TRPA1; Block of AITC activation of TRPA1 (human TRPA1 [2]; 400 μM antagonist): Block both H2O2 and AITC on TRPA1
3 | CCCCCCCCCCCCCCCCCC(=O)OCC(O)CO (racemic) [1-stearoyl-rac-glycerol] | Block menthol, H2O2, and AITC on TRPA1 | 3131.0 Counts | 55.5% | Block menthol, H2O2, and AITC on TRPA1 | 4708.0 Counts | 26.4% | Block menthol, H2O2, and AITC on TRPA1 | –
4 | CC1=CC(=O)[C@@H](C(C)C)CC1 [L-Piperitone] | – | – | – | – | – | – | – | % Reduction of Hydrogen Peroxide TRPV1 Activation (human TRPV1 [5]): 58%
5 | CCCCCCCCCC(C)=O [2-undecanone] | – | – | – | Block menthol, H2O2, and AITC on TRPA1 | 1282.3 Counts | 32.6% | Block menthol, H2O2, and AITC on TRPA1 | Average Ca++ Counts (human TRPA1 [1]): 4581.0 Counts; Block of hydrogen peroxide activation of TRPA1 (human TRPA1 [1]): Block menthol, H2O2, and AITC on TRPA1; inhibition at 100 µM (human TRPA1 [1]): 56.8%
6 | CC1SCCS1 [2-methyl-1,3-dithiolane] | Block menthol, H2O2, and AITC on TRPA1 | 2402.0 Counts | 72.5% | Block menthol, H2O2, and AITC on TRPA1 | 2650.5 Counts | 34.3% | Block menthol, H2O2, and AITC on TRPA1 | –
7 | COc1ccccc1C=CC=O [o-Methoxycinnamaldehyde] | – | – | – | – | – | – | – | Block of hydrogen peroxide activation of TRPA1 (human TRPA1 [1]; [6]): Block both H2O2 and AITC on TRPA1; inhibition at 400 µM (human TRPA1 [1]; [7]): 51%; Block of AITC activation of TRPA1 (human TRPA1 [2]; 400 μM antagonist): Block both H2O2 and AITC on TRPA1
8 | CSCCCN=C=S [3-(methylthio)propyl isothiocyanate] | – | – | – | BLOCK BOTH MENTHOL AND AITC ON TRPA1 | 1426.7 Counts | 25.9% | BLOCK BOTH MENTHOL AND AITC ON TRPA1 | –
9 | O=C(O)CCC(=O)O [succinic acid] | – | – | – | BLOCK BOTH MENTHOL AND AITC ON TRPA1 | 1045.0 Counts | 43.6% | BLOCK BOTH MENTHOL AND AITC ON TRPA1 | –
10 | c1ccc(SSc2ccccc2)cc1 [diphenyl disulfide] | – | – | – | Block menthol, H2O2, and AITC on TRPA1 | 1630.5 Counts | 64.9% | Block menthol, H2O2, and AITC on TRPA1 | Average Ca++ Counts (human TRPA1 [1]): 1112.0 Counts; Block of hydrogen peroxide activation of TRPA1 (human TRPA1 [1]): Block menthol, H2O2, and AITC on TRPA1; inhibition at 100 µM (human TRPA1 [1]): 81.1%
11 | manganese chloride | Block menthol, H2O2, and AITC on TRPA1 | 2872.5 Counts | – | – | 3922.0 Counts | – | – | % Reduction of Hydrogen Peroxide TRPA1 Activation (human TRPA1 [1]; [9]): 59.2%; Block of AITC activation of TRPA1 (human TRPA1 [2]): Block menthol, H2O2, and AITC on TRPA1; Block of L-Menthol activation of TRPA1 (human TRPA1 [3]): Block menthol, H2O2, and AITC on TRPA1; % Reduction of L-Menthol TRPV1 Activation (human TRPV1 [4]): 38.7%
12 | CC(S)CS (stereo not shown) [1,2-propanedithiol] | Block both H2O2 and AITC on TRPA1 | 2194.5 Counts | – | – | – | – | Block both H2O2 and AITC on TRPA1 | % Reduction of Hydrogen Peroxide TRPA1 Activation (human TRPA1 [1]; [9]): 68.8%
13 | zinc gluconate | – | – | – | BLOCK BOTH MENTHOL AND AITC ON TRPA1 | 3963.5 Counts | – | BLOCK BOTH MENTHOL AND AITC ON TRPA1 | % Reduction of L-Menthol TRPV1 Activation (human TRPV1 [4]): 38.1%
14 | C1CNCCN1 [piperazine] | BLOCK BOTH MENTHOL AND H2O2 ON TRPA1 | 2815.5 Counts | 60% | BLOCK BOTH MENTHOL AND H2O2 ON TRPA1 | 3405.0 Counts | 46.8% | – | –
15 | CCCC/C=C/C=C/C=O [trans, trans-2,4-Nonadienal] | – | – | – | – | – | – | – | Block of hydrogen peroxide activation of TRPA1 (human TRPA1 [1]; [6]): Block both H2O2 and AITC on TRPA1; inhibition at 400 µM (human TRPA1 [1]; [7]): 67%; Block of AITC activation of TRPA1 (human TRPA1 [2]; 400 μM antagonist): Block both H2O2 and AITC on TRPA1
16 | Cc1occc1S [2-methyl-3-furanthiol] | – | – | – | BLOCK BOTH MENTHOL AND AITC ON TRPA1; also recorded: BLOCK ONLY MENTHOL/TRPA1 | 2835.5 Counts | 38.9% | BLOCK BOTH MENTHOL AND AITC ON TRPA1 | –
17 | CCCC(=O)OCc1ccc(OC)cc1 [Anisyl Butyrate] | – | – | – | – | – | – | – | Block of hydrogen peroxide activation of TRPA1 (human TRPA1 [1]; [6]): Block both H2O2 and AITC on TRPA1; % Reduction of Hydrogen Peroxide TRPA1 Activation (human TRPA1 [1]; [7]): 54%; Block of AITC activation of TRPA1 (human TRPA1 [2]; 400 μM antagonist): Block both H2O2 and AITC on TRPA1

Second part, led by results:

Row | Block of hydrogen peroxide activation of TRPA1 (human TRPA1 [1]; [8]) | Average Ca++ Counts (human TRPA1 [1]; [9]) | inhibition at 100 µM (human TRPA1 [1]; [9]) | Block of L-Menthol activation of TRPA1 (human TRPA1 [3]; [10]) | Average Ca2+ Counts (human TRPV1 [4]) | inhibition at 100 µM (human TRPV1 [4]) | Block of AITC activation of TRPA1 (human TRPA1 [2]; 100 μM antagonist) | Compound | further results
18 | BLOCK BOTH MENTHOL AND H2O2 ON TRPA1 | 3067.5 Counts | 56.4% | BLOCK BOTH MENTHOL AND H2O2 ON TRPA1 | 4020.0 Counts | 37.2% | – | COc1nccnc1CC(C)C [2-isobutyl-3-methoxypyrazine] | –
19 | BLOCK BOTH MENTHOL AND H2O2 ON TRPA1 | 3443.0 Counts | 51.1% | BLOCK BOTH MENTHOL AND H2O2 ON TRPA1 | 4895.5 Counts | 23.5% | – | C=CCOC(=O)CCC1CCCCC1 [allyl cyclohexanepropionate] | –
20 | Block both H2O2 and AITC on TRPA1 | 3298.5 Counts | 53.2% | – | – | – | Block both H2O2 and AITC on TRPA1 | CCOC(=O)CC1(C)OCCO1 [ethyl acetoacetate ethylene ketal] | –
21 | Block both H2O2 and AITC on TRPA1 | 4828.5 Counts | 54.4% | – | – | – | Block both H2O2 and AITC on TRPA1 | O=C(C=Cc1ccccc1)OCc1ccccc1 [benzyl cinnamate] | –
22 | Block both H2O2 and AITC on TRPA1 | 3314.5 Counts | 43.6% | – | – | – | Block both H2O2 and AITC on TRPA1 | CCOC(=O)CC(C)=O [ethyl acetoacetate] | –
23 | – | – | – | BLOCK BOTH MENTHOL AND AITC ON TRPA1 | 1443.0 Counts | 25.2% | BLOCK BOTH MENTHOL AND AITC ON TRPA1 | Cc1cc(S)c(C)o1 [2,5-dimethylfuran-3-thiol] | –
24 | Block menthol, H2O2, and AITC on TRPA1 | 4808.5 Counts | 54.6% | Block menthol, H2O2, and AITC on TRPA1 | – | – | Block menthol, H2O2, and AITC on TRPA1 | CCc1ccccc1S [2-ethylbenzenethiol] | –
25 | Block both H2O2 and AITC on TRPA1 | 3429.0 Counts | 51.3% | – | – | – | Block both H2O2 and AITC on TRPA1 | Cc1ccc(C=O)c(O)c1 [2-hydroxy-4-methylbenzaldehyde] | –
26 | Block both H2O2 and AITC on TRPA1 | 2893.5 Counts | 72.7% | – | – | – | Block both H2O2 and AITC on TRPA1 | O=C(Oc1ccccc1)c1ccccc1O [phenyl salicylate] | –
27 | Block both H2O2 and AITC on TRPA1 | 3392.5 Counts | 51.8% | – | – | – | Block both H2O2 and AITC on TRPA1 | CC(C)OC(=O)C(C)C [isobutyric acid isopropyl ester] | –
28 | – | 5513.0 Counts | 48% | – | – | – | Block both H2O2 and AITC on TRPA1 | c1ccc2scnc2c1 [benzothiazole] | –
29 | Block menthol, H2O2, and AITC on TRPA1 | – | – | Block menthol, H2O2, and AITC on TRPA1 | – | – | Block menthol, H2O2, and AITC on TRPA1 | SCCc1cnccn1 [2-Pyrazinyl ethanethiol] | –
